For experiment [1], the system named is HSCs. As to the kind of experiment: Competitive transplantation of HSCs cultured 10 days, with serial transplantation. Format: cell-based, murine. The source says:
FIG. 16A-B depict that HSC functionality is maintained and expanded in vitro by interventions that can induce/activate Hsf1. FIG. 16A depicts donor cell engraftment 16 weeks after transplantation of 10 HSCs cultured for 10 days in the presence or absence of an HSP90 inhibitor (17-AAG) or TRiC inhibitor (HSF1A) or from 10 freshly isolated HSCs. Cells were transplanted with 2×10^5 freshly isolated congenic bone marrow cells (n=3 independent experiments with 3-5 recipients/condition/experiment). […] Addition of either 17-AAG or HSF1A increased the reconstituting potential of cultured HSCs as compared to both control cultured and freshly isolated HSCs.
To test if HSCs depend on Hsf1 for their maintenance in vitro, we conditionally deleted Hsf1 from HSCs, cultured them for 10 days and assessed their long-term multilineage reconstituting activity in competitive transplantation assays. The assay for testing HSC function is to assess their capacity to give long-term (16+ week) multilineage (B cell, T cell and myeloid cell) reconstitution of the blood system of an irradiated transplant recipient. A competitive transplantation assay provides a quantitative readout of HSC regenerative activity.
Modest declines in proteostasis impair HSC maintenance in vivo. […] This raises the possibility that increasing Hsf1 activity could promote HSC maintenance in vitro by enhancing proteostasis capacity. To test if HSP90 inhibitors or TRiC inhibitors promote HSC maintenance in vitro, purified HSCs were sorted from young adult murine bone marrow (CD45.1^+) into 96-well plates (10/well) containing our HSC medium supplemented with 17-AAG or HSF1A. HSCs were cultured for 10 days and competitively transplanted with 2×10^5 freshly isolated congenic bone marrow cells (CD45.2^+) into irradiated mice (CD45.2^+). Recipient mice were bled monthly (for 4 months) to assess levels of donor-derived CD45.1^+ hematopoietic cells. Self-renewal capacity of HSCs was assessed by serially transplanting hematopoietic cells from the primary recipients into secondary irradiated recipients (3×10^6 cells/recipient). […] Similar results are expected for other HSP90 or TRiC inhibitors.
To test if HSP90 inhibitors or TRiC inhibitors enable HSC expansion in vitro, purified HSCs were sorted from young adult bone marrow (CD45.1^+) into 96-well plates (10/well) containing HSC medium supplemented with 17-AAG or HSF1A. HSCs were cultured for 10 days and competitively transplanted with 2×10^5 freshly isolated congenic bone marrow cells (CD45.2^+) into irradiated mice (CD45.2^+). At the same time, 10 freshly isolated HSCs were transplanted with 2×10^5 freshly isolated congenic bone marrow cells into irradiated mice. Recipient mice were bled monthly (for 4 months) to assess levels of donor-derived CD45.1^+ hematopoietic cells. Self-renewal capacity of HSCs was assessed by serially transplanting hematopoietic cells (3×10^6 cells/recipient) into secondary irradiated recipients. […] Similar results are expected for other HSP90 or TRiC inhibitors.

For experiment [2], the system named is Hsf1. As to the kind of experiment: Hsf1 expression and localization by immunofluorescence in cultured HSCs. Format: cell-based, mouse. The settings on record: 10 days culture; 17-AAG 5 nM, HSF1A 8 uM final concentration. The source says:
FIG. 14 depicts representative immunofluorescence staining of HSCs cultured for 10 days in the presence or absence of 17-AAG or HSF1A. Addition of 17-AAG or HSF1A to culture medium increased Hsf1 accumulation in the nucleus of cultured HSCs. Hsf1-deficient HSCs and cells stained without primary antibody (Neg Con) are shown as controls.
Since Hsf1 promoted HSC maintenance and protein homeostasis in vitro (FIG. 13), we investigated whether increasing Hsf1 expression or activity would further enhance HSC maintenance. […] Hsf1 can become active as a transcription factor when it translocates to the nucleus. We thus tested whether inhibitors of HSP90 or TRiC would promote Hsf1 accumulation in the nucleus of cultured HSCs by culturing HSCs for 10 days in the presence or absence of 17-AAG (HSP90 inhibitor; 5 nM final concentration) or HSF1A (TRiC inhibitor; 8 uM final concentration), and assessed Hsf1 expression and localization by immunofluorescence.

Experiment [3] concerns HSCs. Nature of the experiment: TMI fluorescence (unfolded protein abundance) in cultured HSCs. Format: cell-based, mouse. The settings on record: 18 hours in culture. As to the method: FIG. 15 depicts that addition of 17-AAG to culture medium reduced TMI fluorescence (unfolded protein abundance) within cultured HSCs (18 hour cultures shown).
Hsf1 promoted protein homeostasis maintenance in cultured HSCs (FIG. 13B), and 17-AAG promoted Hsf1 accumulation in cultured HSCs (FIG. 14). We thus investigated whether addition of 17-AAG to culture medium could promote protein homeostasis maintenance in HSCs. To test this, HSCs were cultured in the presence or absence (vehicle only; DMSO) of 17-AAG. After 18 hours in culture, we assessed protein homeostasis by quantifying unfolded protein abundance based on TMI fluorescence.

Experiment [4] relates to HSCs. As to the kind of experiment: Retroviral (MSCV-IRES-GFP) transduction of HSCs, GFP in colonies. Format: cell-based, mouse. The note with it: medium supplemented with 17-AAG; colonies assessed ten days after plating. As to the method:
FIG. 19 depicts that addition of 17-AAG to culture medium supported highly efficient genetic modification of HSCs. The frequency of HSCs that were transduced with a GFP encoding retrovirus in culture is shown.
We tested whether the presence of HSP90 inhibitors in cell culture medium permitted efficient genetic modification of HSCs. Purified HSCs were cultured overnight in medium supplemented with 17-AAG. Retroviral supernatant (containing retrovirus encoding MSCV-IRES-GFP) was added two times (two hours apart), and the cells were cultured for an additional 24 hours. After culture, the cells were plated in methylcellulose semi-solid medium supplemented with hematopoietic cytokines. Ten days later, individual colonies (derived from single HSCs) were assessed for GFP expression by flow cytometry. […] We expect this will also be true for other HSP90 inhibitors, TRiC inhibitors and Hsf1 agonists. In addition, we expect that these agents will also be compatible for genetic modification of stem cells by other technologies (in addition to retrovirus), including but not limited to lentivirus, CRISPR and other genetic modification or editing technologies.

Experiment [5] deals with CD150+CD48-LSK HSCs. Nature of the experiment: Frequency of CD150+CD48-LSK cells in 10-day HSC cultures. Format: cell-based, mouse. The note with it: 10 HSCs/well, 10 days culture. The method, then:
FIG. 18 depicts that addition of 17-AAG to culture medium increased the frequency of CD150^+CD48^−LSK HSCs in 10-day HSC cultures as compared to controls.
To further test if HSP90 inhibitors promote HSC maintenance/expansion, we cultured purified HSCs (10/well) for 10 days in the presence or absence of 17-AAG, and assessed the frequency of CD150^+CD48^−LSK cells in culture. CD150^+CD48^−LSK cells were about ˜4-fold enriched when 17-AAG was added to the culture medium (FIG. 18). […] Similar results are expected for other HSP90 inhibitors, TRiC inhibitors and agonists of Hsf1.

Experiment [6] concerns Hsf1-deficient and control HSCs. Nature of the experiment: Competitive transplantation of cultured wild-type and Hsf1-deficient HSCs. Format: cell-based, mice. The settings on record: 12 weeks after transplantation. From the text:
FIG. 17 depicts that Hsf1 is required for 17-AAG and HSF1A to enhance HSC maintenance and expansion in vitro. Donor cell engraftment 12 weeks after transplantation of 10 wild-type and Hsf1-deficient HSCs cultured for 10 days in the presence or absence of 17-AAG, HSF1A or DMSO. Cells were transplanted with 2×10^5 freshly isolated congenic bone marrow cells (n=7-9; *P<0.05, **P<0.01).
We tested whether the positive effects of 17-AAG and HSF1A on HSC maintenance/expansion in vitro were mediated by Hsf1. Purified Hsf1-deficient and control HSCs were sorted from adult bone marrow (CD45.2^+) into 96-well plates (10/well) containing HSC medium supplemented with 17-AAG, HSF1A or vehicle (DMSO). HSCs were cultured for 10 days and competitively transplanted with 2×10^5 freshly isolated congenic bone marrow cells (CD45.1^+) into irradiated mice (CD45.1^+). Recipient mice were bled monthly to assess levels of donor-derived CD45.2^+ hematopoietic cells. […] However, the positive effect of 17-AAG and HSF1A was lost with Hsf1-deficient HSCs (FIG. 17).

This note sets out measurements from patent publication US20200270576A1, “Ex Vivo Maintenance and Expansion of Stem Cells” (priority 2017, published 2020).

Regarding `C=CCNC1=C2C[C@@H](C)C[C@H](OC)[C@H](O)[C@@H](C)/C=C(\C)[C@H](OC(N)=O)[C@@H](OC)/C=C\C=C(/C)C(=O)NC(=CC1=O)C2=O` [17-AAG, 17-N-Allylamino-17-demethoxygeldanamycin], the “donor cell reconstitution vs recipients of freshly isolated HSCs” value in experiment [1] (10 HSCs cultured 10 days vs 10 freshly isolated HSCs) is on record as “higher levels of donor cell reconstitution as compared to recipients of freshly isolated HSCs”. Also, in experiment [1] (10 HSCs cultured 10 days, with 2x10^5 congenic bone marrow cells, 16 weeks), the “donor cell reconstitution in primary recipients vs HSCs cultured without agent” value was “significantly higher levels of donor cell reconstitution as compared to controls”. Besides, the “fraction of recipients with long-term multilineage reconstitution vs HSCs cultured without agent” value in experiment [1] (primary and secondary transplants, 16 week, >0.5% B-, T-, myeloid cells) is “greater fraction”. Moreover, in experiment [1] (secondary transplants), the “fraction of recipients with long-term multilineage reconstitution vs freshly isolated HSCs” value was “significantly greater fraction”. Further, the “donor cell reconstitution in secondary recipients vs HSCs cultured without agent” value in experiment [1] (serial transplant, 3x10^6 cells/recipient) was “even more pronounced”. The “Hsf1 abundance in the nucleus of cultured HSCs” value in experiment [2] was “increase Hsf1 abundance in the nucleus”. The “TMI fluorescence (unfolded protein abundance) vs vehicle (DMSO) controls” value in experiment [3] is listed as “less TMI fluorescence than controls”. In experiment [4], the “colonies in which GFP was detected” value is on record as 22/25 and the “frequency of GFP-positive colonies (transduced HSCs)” value is 88%. Also, the “enrichment of CD150+CD48-LSK cells vs culture without agent” value in experiment [5] is around 4 fold. The “donor cell reconstitution vs controls (DMSO), control HSCs” value in experiment [6] (10 HSCs cultured 10 days) is on record as “higher levels of donor cell reconstitution as compared to controls”. In addition, in experiment [6] (Hsf1-deficient HSCs cultured 10 days), the “positive effect on donor cell reconstitution with Hsf1-deficient HSCs” value is “lost”.
